Laboratory results from US20240226100A1, “CONTROL OF PROTEIN EXPRESSION WITH TMP-PROTAC COMPOUNDS” (THE TRUSTEES OF THE UNIVERSITY OF PENNSYLVANIA, priority 2021, published 2024).
Structures can show the parent of a compound that is named as a salt. Where a SMILES comes first, the peptide text is derived from it. The star is where a group is joined. Cbz = O=C(OCc1ccccc1)*

How the values were obtained:
[1] = tested on: eDHFR-YFP; experiment: Inhibitor test in HEK293T eDHFR-YFP+ cells, Western blot; format: cell-based, Escherichia coli; conditions: inhibitor pre-incubated 1 h, then 100 nM 7c for 12 h
Protocol: Cells were then isolated as previously described and prepared for Western blot analysis. For readout by flow cytometry, 3×10^5 HEK293T^eDHFR-YFP+ cells were seeded in a clear (Falcon) 12-well plate (5×10^5 cells/well) in complete media and the cells were treated as described above the following day. Cells were washed, trypsinized, and collected following total of 13 h of incubation, and their YFP expression was analyzed on flow cytometer (BD).

[2] = tested on: eDHFR-YFP; experiment: Time and dose-dependent degradation of YFP in Jurkat-DYL / Jurkat eDHFR-YFP+ cells, flow cytometry; format: cell-based, Escherichia coli; conditions: Jurkat-DYL; 4, 8 and 18 h incubation, varying doses
Protocol: Likewise, Jurkat eDHFR-YFP (Jurkat^eDHFR-YFP+) cells are seeded in clear (Falcon) 12-well plates (3×10^5 cells/well) in complete media. […]

[3] = tested on: DHFR-YFP (DY) direct fusion protein; experiment: Degradation mechanism in Jurkat-DYL cells pre-treated with epoxomicin or hydroxychloroquine sulfate, flow cytometry; format: cell-based, Escherichia coli; conditions: Jurkat-DYL pre-treated with DMSO, epoxomicin or hydroxychloroquine sulfate 2 h, then compound 4 h
Protocol: In FIG. 2, flow cytometric analysis is used to measure Jurkat-DYL cells expressing DHFR-YFP (DY) direct fusion protein pre-treated with DMSO, epoxomicin (EPOX), or hydroxychloroquine sulfate (HCS) for 2 hours before DMSO or compound 7b treatment for 4 hours.

[4] = tested on: eDHFR-YFP; experiment: Degradation of eDHFR-YFP in HEK293T eDHFR-YFP+ cells, Western blot with anti-YFP antibody; format: cell-based, Escherichia coli; conditions: 24 h
Protocol: HEK293T eDHFR-YFP (HEK293T^eDHFR-YFP+) and OVCAR8 eDHFR-luc (OVCAR8^eDHFR-luc+) cells are prepared in clear (Falcon) 6-well plates (5×10^5 cells/well) and cultured in complete media. Compound 7c is solubilized in 100% DMSO to 10 mM. 10 mM 7c is serially diluted in sterile water accordingly and each dose administered to cells in fresh media at equal volume, such that the final concentration of DMSO in cell media is <1%. Once incubation with drug is completed, media is removed by vacuum, cells are washed with phosphate-buffered saline (PBS), trypsonized at 37° C., quenched with media, and centrifuged (Thermo Scientific Sorvall Legend X1R) at 1000 RPM for 5 minutes. Media and cell debris are removed by vacuum.
Once cells are isolated by centrifugation (Thermo Scientific Sorvall Legend X1R), they are solubilized in radioimmunoprecipitation assay (RIPA) lysis buffer with protease inhibitor. Cell lysate is incubated on ice for 30 minutes, sonicated, then centrifuged (Thermo Scientific Sorvall Legend Micro 21R) at 14,800 RPM for 10 minutes. Supernatant is removed and transferred to a new Eppendorf tube.
Using Thermo Scientific bicinchoninic acid (BCA) assay kit, total cell protein is quantified and compared to bovine serum albumin (BSA) standards ranging from 10 to 0.625 mg/mL. Cell lysate is aliquoted into a 96-well clear plate (Falcon) and mixed with reagent and shaken at 37° C. for 30 minutes. Samples are analyzed by plate reader (ThermoFisher Varioskan Plusplate), where absorbance is measured at […]. A calibration curve is developed, and samples are prepared to equal mass (mg) of total protein for gel electrophoresis.
Cell lysate is prepared by mixing with 4 uL of loading dye and PBS to give equal total protein and equal total volume across all samples. Each sample is loaded into a NuPage gel (4-12% Bis-tris) and developed in NuPage MES Running Buffer. Once complete, the gel is removed and prepared for protein transfer to membrane. […]

[5] = tested on: FAP CAR-eDHFR direct fusion (DF); experiment: Dose response of surface CAR expression in primary human FAP-eDHFR DF CAR T cells, flow cytometry; format: cell-based; conditions: different doses, 24 hours
Protocol: Generated CAR T cells were pelleted, resuspended in 2% BSA in PBS (Invitrogen), and incubated with Alexa Fluor® 647 AffiniPure F(ab′2) fragment goat anti-mouse IgG (Jackson ImmunoResearch Laboratories) for 30 minutes at room temperature. Stained cells were washed 3 times with PBS, and were analyzed on a flow cytometer (LSR II, BD Biosciences) for CAR and/or BFP expression. All flow data were analyzed using FlowJo software (FlowJo).
Following incubation, the cells were washed and stained with Alexa Fluor® 647 AffiniPure F(ab′2) fragment goat anti-mouse IgG (Jackson ImmunoResearch Laboratories) as described under “Flow Cytometry”, and their surface expression was analyzed on a flow cytometer (LSR II, BD Biosciences).
Data plotted as raw CAR stain fluorescence is shown in the left panel and percent of maximum CAR expression is shown in the right panel.
Values are reported as percent of maximum CAR expression (i.e. relative to CAR T cells that were treated with vehicle control). Each color represents a different donor (n=3).

[6] = tested on: FAP CAR-eDHFR direct fusion (DF); experiment: Inhibitor test in primary human FAP-eDHFR DF CAR T cells, flow cytometry; format: cell-based; conditions: inhibitor pre-incubated 1 hour, then 100 nM 7c for 4 hours
Protocol: Following pre-incubation, either 100 nM 7c or vehicle control DMSO (Sigma) was added to the wells, and cells were incubated with the drug for another 4 hours. Following incubation, the cells were washed and their surface CAR expression was assessed on a flow cytometer (BD Biosciences).
Following pre-incubation, the cells were incubated with 100 nM 7c for 4 hours and their CAR expression was assessed on a flow cytometer.

[7] = tested on: FAP-eDHFR DF CAR T cells; conditions: 10:1 E:T ratio overnight, I45 huFAP target cells
[8] = tested on: FAP-eDHFR DF CAR T cells; conditions: 1 hour at 37° C., with or without 5 μM unlabeled TMP
Protocol: 3×10^6 CAR T cells were incubated with 6×10^6 counts per minute (cpm) of [^18F]FPTMP for 60 minutes in the presence or absence of unlabeled 5 μM TMP. Following incubation, cells were centrifuged at 1200 rpm and washed 3 times with cold PBS (Corning). After the third wash, the cell pellet was resuspended in 900 μL of PBS and split into 3 technical replicates of 300 μL. Radiotracer uptake was quantified on a gamma counter (PerkinElmer) and analyzed by dividing counts by the injected dose (ID) of [^18F]FPTMP. The final uptake was reported as a ratio between % ID normalized per 10^6 cells (% ID/10^6 cells) of the [^18F]FPTMP group and the blocked control (i.e. cells that were incubated with both unlabeled TMP and [^18F]FPTMP).

Cn1cnc(N)c2ncnc1-2 [3-Methyladenine]
effect of inhibitor on eDHFR-YFP degradation induced by 7c [1]: does not

COc1cc(Cc2cnc(N)nc2N)cc(OC)c1OCC(=O)NCCOCCOCCNc1cccc2c1C(=O)N(C1CCC(=O)NC1=O)C2=O (centres unmarked) [Compound 7a, 2-(4-((2,4-diaminopyrimidin-5-yl)methyl)-2,6-dimethoxyphenoxy)-N-(2-(2-(2-((2-(2,6-dioxopiperidin-3-yl)-1,3-dioxoisoindolin-4-yl)amino)ethoxy)ethoxy)ethyl)acetamide]
degradation of YFP (eDHFR fusion protein) [2]: degrade eDHFR fusion proteins to low/no functional expression

COc1cc(Cc2cnc(N)nc2N)cc(OC)c1OCCCC(=O)NCCOCCNc1cccc2c1C(=O)N(C1CCC(=O)NC1=O)C2=O (centres unmarked) [Compound 7b, 4-(4-((2,4-diaminopyrimidin-5-yl)methyl)-2,6-dimethoxyphenoxy)-N-(2-(2-((2-(2,6-dioxopiperidin-3-yl)-1,3-dioxoisoindolin-4-yl)amino)ethoxy)ethyl)butanamide]
degradation of YFP (eDHFR fusion protein) [2]: degrade eDHFR fusion proteins to low/no functional expression
mechanism of degradation of eDHFR-POI [3]: primarily via a proteosome-mediated mechanism of degradation

COc1cc(Cc2cnc(N)nc2N)cc(OC)c1OCCCC(=O)NCCOCCOCCOCCOCCOCCOCCNc1cccc2c1C(=O)N(C1CCC(=O)NC1=O)C2=O (centres unmarked) [Compound 7e, 4-(4-((2,4-diaminopyrimidin-5-yl)methyl)-2,6-dimethoxyphenoxy)-N-(20-((2-(2,6-dioxopiperidin-3-yl)-1,3-dioxoisoindolin-4-yl)amino)-3,6,9,12,15,18-hexaoxaicosyl)butanamide]
degradation of YFP (eDHFR fusion protein) [2]: degrade eDHFR fusion proteins to low/no functional expression
degradation of eDHFR-YFP in dose response screen [4]: no degradation

COc1cc(Cc2cnc(N)nc2N)cc(OC)c1OCCCC(=O)NCCOCCOCCNc1cccc2c1C(=O)N(C1CCC(=O)N(C)C1=O)C2=O (centres unmarked) [Compound 7f, 4-(4-((2,4-diaminopyrimidin-5-yl)methyl)-2,6-dimethoxyphenoxy)-N-(2-(2-(2-((2-(1-methyl-2,6-dioxopiperidin-3-yl)-1,3-dioxoisoindolin-4-yl)amino)ethoxy)ethoxy)ethyl)butanamide]
downregulation of surface CAR expression in dose response assay [5]: does not result in downregulation of CAR expression from their surface
eDHFR-YFP degradation at 100 nM ([4]; 100 nM): does not induce eDHFR-YFP degradation

CC[C@H](C)[C@H](NC(=O)[C@H]([C@@H](C)CC)N(C)C(C)=O)C(=O)N[C@H](C(=O)N[C@@H](CC(C)C)C(=O)[C@@]1(C)CO1)[C@@H](C)O [Epoxomicin]
effect of inhibitor on eDHFR-YFP degradation induced by 7c [1]: blocks degradation induced by 7c
effect of inhibitor on TMP-POM 7c-mediated degradation of CAR [6]: blocked TMP-POM 7c-mediated degradation of CAR

CCN(CCO)CCCC(C)Nc1ccnc2cc(Cl)ccc12 (centres unmarked) [Hydroxychloroquine HCl]
effect of inhibitor on eDHFR-YFP degradation induced by 7c [1]: does not

CC(C)C[C@@H](C=O)NC(=O)[C@H](CC(C)C)NC(=O)[C@H](CC(C)C)NC(=O)OCc1ccccc1 [MG132] (Cbz-Leu-Leu-Leu-aldehyde)
effect of inhibitor on TMP-POM 7c-mediated degradation of CAR [6]: blocked TMP-POM 7c-mediated degradation of CAR

NS(=O)(=O)OC[C@@H]1C[C@@H](n2ccc3c(N[C@H]4CCc5ccccc54)ncnc32)C[C@@H]1O [MLN4924]
effect of inhibitor on eDHFR-YFP degradation induced by 7c [1]: blocks degradation induced by 7c
effect of inhibitor on TMP-POM 7c-mediated degradation of CAR [6]: blocked TMP-POM 7c-mediated degradation of CAR

COc1cc(Cc2cnc(N)nc2N)cc(OC)c1OCCC[18F] [[18F]FPTMP, [^18F]Fluoropropyl-Trimethoprim]
effect of radiotracer exposure on CAR T cell cytotoxic function [7]: does not affect the effectors' ability to signal and kill target cells
in vitro uptake of radiolabeled TMP [8]: preserved in vitro uptake

CO/C1=C\C(C)=C\[C@@H](C)[C@@H](O)[C@@H](C)C/C(C)=C/C=C/[C@H](OC)[C@@H]([C@@H](C)[C@@H](O)[C@H](C)[C@@]2(O)C[C@@H](O)[C@H](C)[C@@H](C(C)C)O2)OC1=O [bafilomycin]
effect of inhibitor on TMP-POM 7c-mediated degradation of CAR [6]: had no impact on TMP-POM 7c function
